Columns and labels:
[1] = test system: CD8+ T cells of healthy HLA-A*02 donors; test: In vitro immunogenicity: T-cell priming with aAPCs loaded with peptide/MHC complexes and anti-CD28 antibody, pMHC multimer readout; type: cell-based, human; settings: Table 10B
From the text: In order to obtain information regarding the immunogenicity of the TUMAPs of the present invention, the inventors performed investigations using an in vitro T-cell priming assay based on repeated stimulations of CD8+ T cells with artificial antigen presenting cells (aAPCs) loaded with peptide/MHC complexes and anti-CD28 antibody.
In order to perform in vitro stimulations by artificial antigen presenting cells loaded with peptide-MHC complex (pMHC) and anti-CD28 antibody, the inventors first isolated CD8+ T cells from fresh HLA-A*02 leukapheresis products via positive selection using CD8 microbeads (Miltenyi Biotec, Bergisch-Gladbach, Germany) of healthy donors obtained from the University clinics Mannheim, Germany, after informed consent.
PBMCs and isolated CD8+ lymphocytes were incubated in T-cell medium (TCM) until use consisting of RPMI-Glutamax (Invitrogen, Karlsruhe, Germany) supplemented with 10% heat inactivated human AB serum (PAN-Biotech, Aidenbach, Germany), 100 U/ml Penicillin/100 μg/ml Streptomycin (Cambrex, Cologne, Germany), 1 mM sodium pyruvate (CC Pro, Oberdorla, Germany), 20 μg/ml Gentamycin (Cambrex). 2.5 ng/ml IL-7 (PromoCell, Heidelberg, Germany) and 10 U/ml IL-2 (Novartis Pharma, Nümberg, Germany) were also added to the TCM at this step.
Generation of pMHC/anti-CD28 coated beads, T-cell stimulations and readout was performed in a highly defined in vitro system using four different pMHC molecules per stimulation condition and 8 different pMHC molecules per readout condition.
The purified co-stimulatory mouse IgG2a anti human CD28 Ab 9.3 (Jung et al., 1987) was chemically biotinylated using Sulfo-N-hydroxysuccinimidobiotin as recommended by the manufacturer (Perbio, Bonn, Germany). Beads used were 5.6 μm diameter streptavidin coated polystyrene particles (Bangs Laboratories, Illinois, USA).
pMHC used for positive and negative control stimulations were A*0201/MLA-001 (peptide […] (SEQ ID NO. 152) from modified Melan-A/MART-1) and A*0201/DDX5-001 ([…] from DDX5 (SEQ ID NO. 153)), respectively.
800.000 beads/200 μl were coated in 96-well plates in the presence of 4×12.5 ng different biotin-pMHC, washed and 600 ng biotin anti-CD28 were added subsequently in a volume of 200 μl. Stimulations were initiated in 96-well plates by co-incubating […] CD8+ T cells with 2×10^5 washed coated beads in 200 μl TCM supplemented with 5 ng/ml IL-12 (PromoCell) for 3 days at 37° C. Half of the medium was then exchanged by fresh TCM supplemented with 80 U/ml IL-2 and incubating was continued for 4 days at 37° C. This stimulation cycle was performed for a total of three times. For the pMHC multimer readout using 8 different pMHC molecules per condition, a two-dimensional combinatorial coding approach was used as previously described (Andersen et al., 2012) with minor modifications encompassing coupling to 5 different fluorochromes. Finally, multimeric analyses were performed by staining the cells with Live/dead near IR dye (Invitrogen, Karlsruhe, Germany), CD8-FITC antibody clone SK1 (BD, Heidelberg, Germany) and fluorescent pMHC multimers. For analysis, a BD LSRII SORP cytometer equipped with appropriate lasers and filters was used. Peptide specific cells were calculated as percentage of total CD8+ cells. Evaluation of multimeric analysis was done using the FlowJo software (Tree Star, Oregon, USA). In vitro priming of specific multimer+ CD8+ lymphocytes was detected by comparing to negative control stimulations.

HLA-A*02:01 = HLA-A*02:01 (Homo sapiens, UniProt P04439, D140Y/D185E/D98H/E176V/E277Q/G131W/G231S/I119V/I121R/I166T/I218V/L300P/L318F/N151K/N90K/P208A/P217A/Q86G/Q94H/R138H/R169H/T345S); test: MHC binding assay (UV-ligand exchange, beta2m ELISA, peptide exchange yield); settings: binding to HLA-A*02:01 ranged by peptide exchange yield, β2m ELISA
From the text: Candidate peptides for T cell based therapies according to the present invention were further tested for their MHC binding capacity (affinity). The individual peptide-MHC complexes were produced by UV-ligand exchange, where a UV-sensitive peptide is cleaved upon UV-irradiation, and exchanged with the peptide of interest as analyzed. Only peptide candidates that can effectively bind and stabilize the peptide-receptive MHC molecules prevent dissociation of the MHC complexes. To determine the yield of the exchange reaction, an ELISA was performed based on the detection of the light chain (β2m) of stabilized MHC complexes. The assay was performed as generally described in Rodenko et al. (Rodenko et al., 2006).
96 well MAXISorp plates (NUNC) were coated over night with 2 ug/ml streptavidin in PBS at room temperature, washed 4× and blocked for 1 h at 37° C. in 2% BSA containing blocking buffer. Refolded HLA-A*02:01/MLA-001 monomers served as standards, covering the range of 15-500 ng/ml. Peptide-MHC monomers of the UV-exchange reaction were diluted 100 fold in blocking buffer. Samples were incubated for 1 h at 37° C., washed four times, incubated with 2 ug/ml HRP conjugated anti-β2m for 1h at 37° C., washed again and detected with TMB solution that is stopped with […]. Absorption was measured at 450 nm. Candidate peptides that show a high exchange yield (preferably higher than 50%, most preferred higher than 75%) are generally preferred for a generation and production of antibodies or fragments thereof, and/or T cell receptors or fragments thereof, as they show sufficient avidity to the MHC molecules and prevent dissociation of the MHC complexes.

Row | Substance | Wells positive [%] [1] | Peptide exchange (MHC class I binding score) (HLA-A*02:01)
1 | 16 (FMPEELPQL; listed as Homo sapiens) [compound 16] | + (<20% = +) | ++ (≥20% = ++)
2 | 1 (ALIVSLPYL; listed as Homo sapiens) [compound 1] | + (<20% = +) | +++ (≥50 = +++)

From patent US12059458B2, “Peptides and combination of peptides and scaffolds for use in immunotherapy against renal cell carcinoma (RCC) and other cancers” (Immatics Biotechnologies GmbH, priority 2015, dated 2024)
